The text below walks through data of US10752609B2, “GSK-3 inhibitors” (priority 2016, dated 2020).

The structures appear in SMILES notation. Read-outs that look alike come from different tables or passages of the source.

One test addresses GSK3β (Homo sapiens, UniProt P49841). The test can be described thus: GSK3β kinase assay (Caliper LabChip3000 mobility shift, fluoresceinated peptide substrate). It counts as biochemical.
A further test deals with GSK3α (Homo sapiens, UniProt P49840). As to the kind of experiment: GSK3α kinase assay (Caliper LabChip3000 mobility shift, fluoresceinated peptide substrate).
For the next test, the system named is pTau. The test can be described thus: pTau assay (no method described). It counts as cell-based.
Where [1] appears, read: 250 pM enzyme, 20 uM ATP, 1.5 uM peptide, 20 hours room temperature, first value of cell GSK3β/GSK3α, read-out: GSK3β (nM), IC50.

Sequence of GSK3α (P49840 whole entry, species assumed): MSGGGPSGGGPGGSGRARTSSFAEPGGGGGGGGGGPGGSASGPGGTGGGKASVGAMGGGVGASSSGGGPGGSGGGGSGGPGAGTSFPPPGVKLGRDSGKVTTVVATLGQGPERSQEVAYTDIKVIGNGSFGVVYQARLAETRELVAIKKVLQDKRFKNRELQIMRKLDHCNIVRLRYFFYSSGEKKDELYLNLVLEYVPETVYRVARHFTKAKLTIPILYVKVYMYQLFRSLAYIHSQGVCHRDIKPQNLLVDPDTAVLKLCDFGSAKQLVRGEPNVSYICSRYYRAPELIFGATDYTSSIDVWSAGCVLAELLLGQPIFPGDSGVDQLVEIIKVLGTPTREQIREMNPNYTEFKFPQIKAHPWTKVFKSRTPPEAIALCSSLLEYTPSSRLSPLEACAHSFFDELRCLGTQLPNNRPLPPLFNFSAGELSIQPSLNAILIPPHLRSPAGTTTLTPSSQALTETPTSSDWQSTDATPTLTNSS
Sequence of GSK3β (P49841 whole entry, species assumed): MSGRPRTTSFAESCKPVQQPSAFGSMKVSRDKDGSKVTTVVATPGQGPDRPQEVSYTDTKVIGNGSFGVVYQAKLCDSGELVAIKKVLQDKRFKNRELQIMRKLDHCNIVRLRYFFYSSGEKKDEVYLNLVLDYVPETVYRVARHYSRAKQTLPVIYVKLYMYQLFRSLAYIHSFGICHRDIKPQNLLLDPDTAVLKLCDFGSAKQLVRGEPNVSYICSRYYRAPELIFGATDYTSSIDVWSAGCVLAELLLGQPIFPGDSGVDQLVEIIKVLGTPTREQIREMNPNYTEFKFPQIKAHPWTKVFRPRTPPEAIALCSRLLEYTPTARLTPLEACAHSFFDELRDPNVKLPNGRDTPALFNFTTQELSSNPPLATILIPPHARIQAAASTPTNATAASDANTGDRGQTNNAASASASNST

One may read the IC50 as the point on the concentration scale where inhibition reaches its midpoint. Turning to `O=C(Nc1cnccc1-c1ccccc1)c1ccnc(Nc2cc(Cl)c(Cl)cc2F)n1` [Example 31, 2-((4,5-Dichloro-2-fluorophenyl)amino)-N-(4-phenylpyridin-3-yl)pyrimidine-4-carboxamide], the IC50 at GSK3β (setting [1]) was determined as 0.89 nM; on GSK3α, 0.52 nM; in the test on pTau it was 320 nM.
Consider `O=C(Nc1cnccc1-c1ccccc1)c1ccnc(Nc2cc(F)c(Cl)cc2F)n1` [Example 32, 2-((4-Chloro-2,5-difluorophenyl)amino)-N-(4-phenylpyridin-3-yl)pyrimidine-4-carboxamide], for which the concentration for half-maximal inhibition (IC50) on GSK3β (setting [1]) is 0.48 nM; on GSK3α, 0.56 nM; with pTau, 100 nM.
The like results for `O=C(Nc1cnccc1-c1ccccc1)c1ccnc(Nc2cc(OC(F)F)c(Cl)cc2F)n1` [Example 33, 2-((4-Chloro-5-(difluoromethoxy)-2-fluorophenyl)amino)-N-(4-phenylpyridin-3-yl)pyrimidine-4-carboxamide] were, in that order, 2.3 nM, 2.1 nM and 700 nM.
Consider `O=C(Nc1cnccc1-c1ccccc1)c1ccnc(Nc2cccnc2)n1` [Example 34, N-(4-Phenylpyridin-3-yl)-2-(pyridin-3-ylamino)pyrimidine-4-carboxamide], for which the IC50 on GSK3β (setting [1]) is 1.2 nM; at GSK3α, 0.69 nM; with pTau it was 46 nM.
On the same counts, the results for `O=C(Nc1cnccc1-c1ccccc1)c1ccnc(Nc2ccncc2)n1` [Example 35, N-(4-Phenylpyridin-3-yl)-2-(pyridin-4-ylamino)pyrimidine-4-carboxamide] are 1.1 nM, 0.63 nM and 30 nM.
For the compound `Cc1cc(Nc2nccc(C(=O)Nc3cnccc3-c3ccccc3)n2)ccn1` [Example 36, 2-((2-Methylpyridin-4-yl)amino)-N-(4-phenylpyridin-3-yl)pyrimidine-4-carboxamide], the IC50 on GSK3β is 0.84 nM; at GSK3α it was 0.55 nM; with pTau it was 36 nM.
Regarding `COc1cc(Nc2nccc(C(=O)Nc3cnccc3-c3ccccc3)n2)ccn1` [Example 37, 2-((2-Methoxypyridin-4-yl)amino)-N-(4-phenylpyridin-3-yl)pyrimidine-4-carboxamide], the IC50 at GSK3β (setting [1]) came to 0.54 nM; at GSK3α, 0.51 nM; in the test with pTau, 33 nM.
On the same counts, the results for `O=C(Nc1cnccc1-c1ccccc1)c1ccnc(Nc2ccc(OC(F)F)nc2)n1` [Example 38, 2-((6-(Difluoromethoxy)pyridin-3-yl)amino)-N-(4-phenylpyridin-3-yl)pyrimidine-4-carboxamide] are 3.1 nM, 1.1 nM and 130 nM.
On the same counts, the results for `O=C(Nc1cnccc1-c1ccccc1)c1ccnc(Nc2ccc(C(F)(F)F)nc2)n1` [Example 39, N-(4-Phenylpyridin-3-yl)-2-((6-(trifluoromethyl)pyridin-3-yl)amino)pyrimidine-4-carboxamide] are 3.4 nM, 1.5 nM and 470 nM.
Consider `Cc1nc(OC(F)F)ccc1Nc1nccc(C(=O)Nc2cnccc2-c2ccccc2)n1` [Example 40, 2-((6-(Difluoromethoxy)-2-methylpyridin-3-yl)amino)-N-(4-phenylpyridin-3-yl)pyrimidine-4-carboxamide], for which the half-maximal inhibitory concentration (IC50) at GSK3β (setting [1]) came out at 22 nM; at GSK3α, 21 nM; with pTau it was 5200 nM.
For `Cc1cc(Nc2nccc(C(=O)Nc3cnccc3-c3ccccc3)n2)c(C)nc1OC(F)F` [Example 41, 2-((6-(Difluoromethoxy)-2,5-dimethylpyridin-3-yl)amino)-I-(4-phenylpyridin-3-yl)pyrimidine-4-carboxamide], the concentration for half-maximal inhibition (IC50) at GSK3β (setting [1]) worked out at 1.6 nM; on GSK3α, 1.9 nM; in the test with pTau, 290 nM.
As for `CC(C)OCCCNc1nccc(C(=O)Nc2cnccc2-c2ccccc2)n1` [Example 42, 2-((3-Isopropoxypropyl)amino)-N-(4-phenylpyridin-3-yl)pyrimidine-4-carboxamide], the concentration for half-maximal inhibition (IC50) on GSK3β (setting [1]) was found to be 0.88 nM; on GSK3α it was 0.59 nM; in the test on pTau, 93 nM.
On to `O=C(Nc1cnccc1-c1ccc(F)cc1)c1ccnc(Nc2ccccc2)n1` [Example 43, N-(4-(4-Fluorophenyl)pyridin-3-yl)-2-(phenylamino)pyrimidine-4-carboxamide], for which the IC50 at GSK3β (setting [1]) was found to be 0.25 nM; at GSK3α, 0.19 nM; in the test on pTau it was 34 nM.
Consider `O=C(Nc1cnccc1-c1ccc(F)cc1)c1ccnc(Nc2ccc(F)cc2)n1` [Example 44, 2-((4-Fluorophenyl)amino)-N-(4-(4-fluorophenyl)pyridin-3-yl)pyrimidine-4-carboxamide], for which the half-inhibitory concentration (IC50) at GSK3β (setting [1]) was 0.26 nM; at GSK3α, 0.46 nM; in the test with pTau, 34 nM.
The like results for `N#Cc1ccc(Nc2nccc(C(=O)Nc3cnccc3-c3ccc(F)cc3)n2)cc1` [Example 45, 2-((4-Cyanophenyl)amino)-N-(4-(4-fluorophenyl)pyridin-3-yl)pyrimidine-4-carboxamide] were, in that order, 0.35 nM, 0.29 nM and 10 nM.
The like results for `O=C(Nc1cnccc1-c1ccc(F)cc1)c1ccnc(Nc2ccc(Cl)cc2)n1` [Example 46, 2-((4-Chlorophenyl)amino)-N-(4-(4-fluorophenyl)pyridin-3-yl)pyrimidine-4-carboxamide] were, in that order, 0.5 nM, 0.44 nM and 77 nM.
The like results for `O=C(Nc1cnccc1-c1ccc(F)cc1)c1ccnc(Nc2ccc(C(F)(F)F)cc2)n1` [Example 47, N-(4-(4-Fluorophenyl)pyridin-3-yl)-2-((4-(trifluoromethyl)phenyl)amino)pyrimidine-4-carboxamide] were, in that order, 2.1 nM, 0.7 nM and 100 nM.
In the case of `O=C(Nc1cnccc1-c1ccc(F)cc1)c1ccnc(Nc2ccc(OC(F)(F)F)cc2)n1` [Example 48, N-(4-(4-Fluorophenyl)pyridin-3-yl)-2-((4-(trifluoromethoxy)phenyl)amino)pyrimidine-4-carboxamide], the 50% inhibitory concentration (IC50) is 1.5 nM at GSK3β (setting [1]), 1.3 nM on GSK3α and 170 nM in the test on pTau.
The like results for `O=C(Nc1cnccc1-c1ccc(F)cc1)c1ccnc(Nc2ccc(OC(F)F)cc2)n1` [Example 49, 2-((4-(Difluoromethoxy)phenyl)amino)-N-(4-(4-fluorophenyl)pyridin-3-yl)pyrimidine-4-carboxamide] were, in that order, 0.48 nM, 0.29 nM and 74 nM.
The like results for `O=C(Nc1cnccc1-c1ccc(F)cc1)c1ccnc(Nc2ccc(OC(F)F)nc2)n1` [Example 50, 2-((6-(Difluoromethoxy)pyridin-3-yl)amino)-N-(4-(4-fluorophenyl)pyridin-3-yl)pyrimidine-4-carboxamide] were, in that order, 4 nM, 1.5 nM and 180 nM.
Regarding `O=C(Nc1cnccc1OCC(F)(F)F)c1ccnc(Nc2ccccc2)n1` [Example 51, 2-(Phenylamino)-N-(4-(2,2,2-trifluoroethoxy)pyridin-3-yl)pyrimidine-4-carboxamide], the IC50 is 0.25 nM at GSK3β (setting [1]), 0.16 nM at GSK3α and 13 nM in the test on pTau.
On the same counts, the results for `COc1ccc(Nc2nccc(C(=O)Nc3cnccc3OCC(F)(F)F)n2)cc1` [Example 52, 2-((4-Methoxyphenyl)amino)-N-(4-(2,2,2-trifluoroethoxy)pyridin-3-yl)pyrimidine-4-carboxamide] are 0.07 nM, 0.06 nM and 6 nM.
On the same counts, the results for `CCOc1ccc(Nc2nccc(C(=O)Nc3cnccc3OCC(F)(F)F)n2)cc1` [Example 53, 2-((4-Ethoxyphenyl)amino)-N-(4-(2,2,2-trifluoroethoxy)pyridin-3-yl)pyrimidine-4-carboxamide] are 0.35 nM, 0.22 nM and 10 nM.
With `Cc1ccc(Nc2nccc(C(=O)Nc3cnccc3OCC(F)(F)F)n2)cc1` [Example 54, 2-(p-Tolylamino)-N-(4-(2,2,2-trifluoroethoxy)pyridin-3-yl)pyrimidine-4-carboxamide], the IC50 was 0.12 nM at GSK3β (setting [1]), 0.08 nM on GSK3α and 5.1 nM in the test with pTau.
The like results for `O=C(Nc1cnccc1OCC(F)(F)F)c1ccnc(Nc2ccc(F)cc2)n1` [Example 55, 2-((4-Fluorophenyl)amino)-N-(4-(2,2,2-trifluoroethoxy)pyridin-3-yl)pyrimidine-4-carboxamide] were, in that order, 0.26 nM, 0.16 nM and 7.6 nM.
The like results for `O=C(Nc1cnccc1OCC(F)(F)F)c1ccnc(Nc2ccc(Cl)cc2)n1` [Example 56, 2-((4-Chlorophenyl)amino)-N-(4-(2,2,2-trifluoroethoxy)pyridin-3-yl)pyrimidine-4-carboxamide] were, in that order, 0.25 nM, 0.15 nM and 5.9 nM.
The like results for `N#Cc1ccc(Nc2nccc(C(=O)Nc3cnccc3OCC(F)(F)F)n2)cc1` [Example 57, 2-((4-Cyanophenyl)amino)-N-(4-(2,2,2-trifluoroethoxy)pyridin-3-yl)pyrimidine-4-carboxamide] were, in that order, 0.08 nM, 0.07 nM and 1.4 nM.
Turning to `O=C(Nc1cnccc1OCC(F)(F)F)c1ccnc(Nc2ccc(C(F)(F)F)cc2)n1` [Example 58, N-(4-(2,2,2-Trifluoroethoxy)pyridin-3-yl)-2-((4-(trifluoromethyl)phenyl)amino)pyrimidine-4-carboxamide], the results for the IC50 on GSK3β (setting [1]), at GSK3α and with pTau were 0.3 nM, 0.18 nM and 10 nM, respectively.
The like results for `O=C(Nc1cnccc1OCC(F)(F)F)c1ccnc(Nc2ccc(OC(F)(F)F)cc2)n1` [Example 59, N-(4-(2,2,2-Trifluoroethoxy)pyridin-3-yl)-2-((4-(trifluoromethoxy)phenyl)amino)pyrimidine-4-carboxamide] were, in that order, 0.18 nM, 0.21 nM and 8.2 nM.
